How the values were obtained:
allergic conjunctivitis = experiment: Clinical efficacy: ocular symptoms and signs (effective rate); type: in vivo, human; conditions: 1-week treatment, oral
From the text: (§1) From May 10, 2021 to Aug. 23, 2021, 36 patients diagnosed with allergic conjunctivitis complicated and allergic rhinitis were collected from Eye Hospital, China Academy of Chinese Medical Sciences, and they were divided into 2 groups according to a random number table method with 20 cases in the treatment group and 16 cases in the control group.
(§2) The treatment group was orally administered with the water decoction prepared in Example 1 with one dose a day and for twice a day, and the control group was orally administered with 10 mg of cetirizine capsules once a day.
(§3) 2. Evaluation Indexes: • 1) Ocular and nasal symptoms and signs were standardly divided into 4 grades (0: none, 1: mild: 2: moderate: and 3: severe); • 2) Systemic adverse reactions and local adverse reactions in the eyes and nose were recorded.
Eye itching: (1) none; (2) mild: the patient won't notice eye itching when busy at work, but can feel itching when free, or has intermittent eye itching, but it's not severe enough to need to be scratched with hand; (3) moderate: the patient has obvious eye itching, and can still tolerate this symptom, but has the desire to scratch it with hand; and (4) severe: the patient has very obvious and continuous eye itching and stabbing pain, and cannot tolerate these symptoms, and therefore normal life is affected.
Conjunctival congestion: (1) none; (2) mild: congestion takes place in palpebral conjunctiva and fornix in a reticular form; (3) moderate: congestion takes place in palpebral conjunctiva, fornix and bulbar conjunctiva in a reticular form; and (4) severe: congestion takes place in palpebral conjunctiva in a form of red patches, blood vessels are blurred, and obvious congestion takes place in fornix and bulbar conjunctiva;
Conjunctival edema: (1) none; (2) bulbar conjunctival edema can be seen under a slit lamp examination; (3) moderate; bulbar conjunctival edema can be directly seen under natural light; and (4) severe: bulbar conjunctival edema with vesicular protuberances; […]

allergic rhinitis = experiment: Clinical efficacy: nasal symptoms and signs (effective rate); type: in vivo, human; conditions: 1-week treatment, oral
From the text: as §1, §2, §3
Rhinocnesmus: (1) none; (2) mild and intermittent; (3) moderate: an ant walking sensation that can be tolerated; and (4) severe: an ant walking sensation that cannot be tolerated.
Sneezing (number of consecutive sneezings): (1) none; (2) mild: 3-9; (3) moderate: 10-14; (4) severe: ≥15.
Nose running (number of nose blowings per day): (1) none; (2) mild: =4; (3) moderate: 5-9; (4) severe ≥10.
The effective rate evaluation method is based on standards established in Clinical Development Guidelines for Pharmaceutical Products for Treatment of Allergic Rhinoconjunctivitis published by the European Medicines Agency, Chinese Expert Consensus on Diagnosis and Treatment of Allergic Conjunctivitis by Chinese Journal of Ophthalmology, 2018, and Guidelines for Diagnosis and Treatment of Allergic Rhinitis (Chinese Journal of Otorhinolaryngology Head and Neck Surgery, 2016. Vol. 51), and is divided into 4 grades (0: none; 1: mild; 2: moderate; and 3: severe), and it is considered effective if two symptoms (or signs) are improved by one grade or more, or same symptom (or sign) is improved by two grades or more. ((2) to (1), (3) to (2) or (4) to (3) represents a one-grade improvement, and (3) to (1) represents a two-grade improvement).

O=C(O)COCCN1CCN(C(c2ccccc2)c2ccc(Cl)cc2)CC1 (stereo not drawn) [cetirizine]
Effective Rate (ocular efficacy) (allergic conjunctivitis): 68.75%
Effective (ocular efficacy) (allergic conjunctivitis; number of patients): 11
Ineffective (ocular efficacy) (allergic conjunctivitis; number of patients): 5
Effective Rate (nasal efficacy) (allergic rhinitis): 75.0%
Effective (nasal efficacy) (allergic rhinitis; number of patients): 12
Ineffective (nasal efficacy) (allergic rhinitis; number of patients): 4

Reference: patent US20240041970A1, “TRADITIONAL CHINESE HERBAL COMPOSITION FOR TREATING ALLERGIC CONJUNCTIVITIS AND/OR ALLERGIC RHINITIS” (EYE HOSPITAL, CHINA ACADEMY OF CHINESE MEDICAL SCIENCES, priority 2021, published 2024)
